The text below walks through data of US20240366546A1, “ANTI-HELICOBACTER PYLORI DERIVATIVE CONTAINING DIHYDROSTILBENE PARENT NUCLEUS AND PREPARATION METHOD AND APPLICATION THEREOF” (NANJING UNIVERSITY OF CHINESE MEDICINE, priority 2024, published 2024).

What all share (format): cell-based
The subject of assay [1] is Helicobacter pylori strain HpG27. In words: Determination of MIC, broth microdilution, strain HpG27. The conditions noted are these: 72 hours of culture, read-out: Minimum inhibitory concentration against helicobacter pylori HpG27. How it is done: (§1) Anti-Helicobacter pylori activity of each compound is evaluated by a broth microdilution method in an activity experiment, and metronidazole, levofloxacin, clarithromycin and vancomycin used in clinic are selected as positive control drugs.
(§2) Helicobacter pylori strains HpG27, Hp159, Hp129 and Hp26695 provided by Professor Hongkai Bi of Nanjing Medical University. Culture mediums and main reagents: Colombian culture mediums, selective antibiotics (metronidazole, levofloxacin and clarithromycin), serum, and the like.
(§3) The strains were taken out of a refrigerator at −80° C. and placed at room temperature, 200 L of standard strains were accurately sucked, transferred to a solid culture medium, and spread with an L-shaped glass rod, a culture dish loaded with the strains was put into a culture bag, then an AnaeroPack was put into the culture bag, and the culture bag was quickly sealed and then put into a constant temperature incubator at 37° C. to culture for 72 hours. After the end of culture, each strain was identified first, then a lawn on the solid culture medium was scraped off, and the lawn was transferred into 50 mL of liquid culture medium to serve as an original bacterial solution.
(§4) • (1) Sample solutions of the compounds 1 to 9 obtained by separation and purification above were prepared according to a concentration of 1 mg/mL. • (2) In preparation of an MIC plate, a first well was added with 176 μL of culture medium and then added with 3.2 μL of antibacterial drug, and dilution was carried out by multiple proportions to a 7th well; and an 8th well was not added with the drug, but was reserved with 90 μL of culture medium to serve as a control with bacteria but no drug. • (3) In preparation of a bacterial solution, Helicobacter pylori growing at a logarithmic phase on a solid plate was made into a bacterial suspension with a BHI culture medium, an OD600 value of concentration of the bacterial suspension was adjusted to be 0.3 (1×10^8 CFU/mL), and the bacterial suspension was diluted by 10 times to reach 1×10^7 CFU/mL for later use. • (4) In inoculation, 10 μL of bacterial solution was added into the 1st to 8th wells (a concentration of the bacterial solution in each well was about 1.0×10^6 CFU/mL). Results were judged after 72 hours of culture. […] The test was only meaningful when the bacteria in the 8th well of the positive control well (without antibiotics) grew obviously. When there was a single drift in a microdilution method, the highest drug concentration capable of inhibiting the growth of bacteria should be recorded. If there were many drifts, the results should not be reported, and the test should be repeated.
(In general: Broth dilution looks for growth in wells or tubes with falling amounts of substance.)

For assay [2], the system named is Helicobacter pylori strain Hp26695. Kind of assay: Determination of MIC, broth microdilution, strain Hp26695. The settings on record: 72 hours of culture, read-out: Minimum inhibitory concentration against helicobacter pylori Hp26695. How it is done:
as §1, §2, §3, §4

The subject of assay [3] is drug-resistant and sensitive Helicobacter pylori. Kind of assay: Determination of MIC, broth microdilution, summary over strains. The conditions noted are these: two kinds of drug-resistant and sensitive Helicobacter pylori; range over strains. On the procedure: as §1, §2, §3, §4
Assay [4] deals with Helicobacter pylori strain Hp129. Kind of assay: Determination of MIC, broth microdilution, strain Hp129. The settings on record: 72 hours of culture, (R) beside control drug values, read-out: Minimum inhibitory concentration against helicobacter pylori Hp129. How it is done: as §1, §2, §3, §4
Assay [5] has as its system Helicobacter pylori strain Hp159. Kind of assay: Determination of MIC, broth microdilution, strain Hp159. The settings on record: 72 hours of culture, (R) beside control drug values, read-out: Minimum inhibitory concentration against helicobacter pylori Hp159. On the procedure: as §1, §2, §3, §4

≈ marks a conversion by molar mass, not a printed value. A value given as a limit tells only on which side of the number the result lay.

For the compound `CC(C)=CCc1c(CCc2ccc(O)cc2)cc(O)cc1OC(=O)C(C)C` [Compound 1], the MIC was 8 µg/mL (≈ 21.7 µM) in assay [1]; 8 µg/mL (≈ 21.7 µM) in assay [2]; 4 to 8 µg/mL (≈ 10.9 to 21.7 µM) in assay [3]; 8 µg/mL (≈ 21.7 µM) in assay [4]; 8 µg/mL (≈ 21.7 µM) in assay [5].

`CC(=O)Oc1cc(O)c(CC=C(C)C)c(CCc2ccc(O)cc2)c1CC=C(C)C` [Compound 7, uralensisol M]: the MIC in assay [1] is 8 µg/mL (≈ 19.6 µM); in assay [2] it was 8 µg/mL (≈ 19.6 µM); in assay [3], 4 to 8 µg/mL (≈ 9.79 to 19.6 µM); in assay [4] it was 8 µg/mL (≈ 19.6 µM); in assay [5], 8 µg/mL (≈ 19.6 µM).

On to `C[C@H]1COc2c(N3CCN(C)CC3)c(F)cc3c(=O)c(C(=O)O)cn1c23` [LVX, levofloxacin, reference compound], for which the MIC is 0.25 µg/mL (≈ 0.692 µM) in assay [1], 0.25 µg/mL (≈ 0.692 µM) in assay [2], 8 µg/mL (≈ 22.1 µM) in assay [4] and 8 µg/mL (≈ 22.1 µM) in assay [5].

For the compound `Cc1ncc([N+](=O)[O-])n1CCO` [MTZ, metronidazole, reference compound], the MIC in assay [1] stood at 2 µg/mL (≈ 11.7 µM); in assay [2], 1 µg/mL (≈ 5.84 µM); in assay [4], 32 µg/mL (≈ 187 µM); in assay [5], 16 µg/mL (≈ 93.5 µM).

As to `CC[C@H]1OC(=O)[C@H](C)[C@@H](O[C@H]2C[C@@](C)(OC)[C@@H](O)[C@H](C)O2)[C@H](C)[C@@H](O[C@@H]2O[C@H](C)C[C@H](N(C)C)[C@H]2O)[C@](C)(OC)C[C@@H](C)C(=O)[C@H](C)[C@@H](O)[C@]1(C)O` [CLR, clarithromycin, reference compound], the MIC was found to be 0.008 µg/mL (≈ 0.0107 µM) in assay [1], 0.008 µg/mL (≈ 0.0107 µM) in assay [2], 1 µg/mL (≈ 1.34 µM) in assay [4] and 2 µg/mL (≈ 2.67 µM) in assay [5].

Turning to `CC(C)=CCc1c(O)cc(O)c(CC=C(C)C)c1CCc1ccc(O)cc1` [Compound 6, uralensisol L], the MIC in assay [1] was 4 µg/mL (≈ 10.9 µM); in assay [2] it was 8 µg/mL (≈ 21.8 µM); in assay [3], 4 to 8 µg/mL (≈ 10.9 to 21.8 µM); in assay [4] it was 8 µg/mL (≈ 21.8 µM); in assay [5] it was 8 µg/mL (≈ 21.8 µM).

Regarding `COc1cc(O)c(CC=C(C)C)c(CCc2ccc(O)cc2)c1` [Compound 3, uralensisol I], the MIC in assay [1] is 4 µg/mL (≈ 12.8 µM); in assay [2], 4 µg/mL (≈ 12.8 µM); in assay [3], 4 to 8 µg/mL (≈ 12.8 to 25.6 µM); in assay [4] it was 8 µg/mL (≈ 25.6 µM); in assay [5] it was 8 µg/mL (≈ 25.6 µM).

Take `O=Cc1c(O)cc(O)cc1CCc1ccc(O)cc1` [Compound 8, uralensisol N]: the MIC in assay [1], in assay [2], in assay [4] and in assay [5] was above 16 µg/mL throughout.

For `CCC(C)C(=O)Oc1cc(O)cc(CCc2ccc(O)cc2)c1CC=C(C)C` (centres unmarked) [Compound 2], the MIC in assay [1], in assay [2], in assay [4] and in assay [5] was above 16 µg/mL each time.

Take `COc1c(O)cc(CCc2cc(O)cc(OC(C)=O)c2CC=C(C)C)cc1CC=C(C)C` [Compound 5, uralensisol K]: the MIC in assay [1], in assay [2], in assay [4] and in assay [5] was above 16 µg/mL each time.

For `CC(=O)Oc1cc(O)cc(CCc2ccc(O)c(CC=C(C)C)c2)c1CC=C(C)C` [Compound 4, uralensisol J], the MIC in assay [1], in assay [2], in assay [4] and in assay [5] was above 16 µg/mL each time.

On to `CC(C)=CCc1cc(CCc2cc(O)cc(O)c2CC=C(C)C)ccc1O` [Compound 9, uralensisol 0], for which the MIC in assay [1] is 8 µg/mL (≈ 21.8 µM); in assay [2], 8 µg/mL (≈ 21.8 µM); in assay [3], 4 to 8 µg/mL (≈ 10.9 to 21.8 µM); in assay [4], 8 µg/mL (≈ 21.8 µM); in assay [5], 8 µg/mL (≈ 21.8 µM).
